The values below come from publication PMC12040169 (PLOS Biology, 2025).

What is called viability is a read-out of living cells in per cent, often relative to untreated cells.

The series can be described thus: in vitro. The following applies: human, hela cells, % viability.

For `CC(=O)Nc1ccc(-c2csc(N3CCN(C)CC3)n2)cc1` [CBK305865], the viability at 28.5 h, 10 µM was 93.6%. Take `O=C(CSc1nnc(Cc2cccc3ccccc23)n1-c1ccccc1)NC1CCCCC1` [CBK266052]: the viability at 28.5 h, 10 µM worked out at 102%. Same read-out and setting: the figure for `CCCC(N)CCCCCC(=O)O` (centres unmarked) [CBK217078] is 91.8%; for `CN(CC1COc2ccccc2O1)C(=O)CC1CCN(C(=O)CC2CCCCC2)CC1` (centres unmarked) [CBK286265] it is 92.7%; for `Cc1cc(NN(Cc2ccccc2)Cc2ccccc2)n2c(nc3ccccc32)c1C#N` [CBK262666] it is 96.9%.

In the case of `Cc1cc(C(=O)CSc2nccc(C(F)(F)F)n2)c(C)n1C1CC1` [CBK305238], the viability at 28.5 h, 10 µM was found to be 80%. As to `COc1ccc(C(C)C)cc1-c1cncc(N2CCN(Cc3ccccn3)CC2)n1` [CBK065792], the viability at 28.5 h, 10 µM was found to be 88.6%. On the same count and under the same terms, the figure for `COCCNc1nc(-c2ccc3[nH]ccc3c2)ccc1C(=O)N1CCN(C)CC1` [CBK105956] is 92.2%. `CCN(CC)C(=O)CCc1nc2sc3c(c2c(=O)[nH]1)CCCC3` [CBK305069]: the viability at 28.5 h, 10 µM came to 87.6%. Same read-out and setting: the result for `COc1ccc(-c2noc(CNC(=O)Nc3ccccc3)n2)cc1OC` [CBK269900] reads 88.3%.

With `O=C(Cc1ccccc1C(=O)O)Nc1ccc(-n2cncn2)c(Cl)c1` [CBK286756], the viability at 28.5 h, 10 µM worked out at 85.7%.

On to `O=c1[nH]nc2c(S(=O)(=O)N3CCCC3)cccn12` [CBK288460], for which the viability at 28.5 h, 10 µM is 85.9%. On the same count and under the same terms, the result for `O=C(Nc1c(F)cccc1F)n1ccc2c(N3CCNCC3)cccc21` [CBK003745C] reads 89.5%.

On to `COc1ccc(OC)c2c1cc(C(=O)NC[C@H]1CC[C@H](C(=O)O)CC1)n2C` [CBK286636], for which the viability at 28.5 h, 10 µM worked out at 86.1%. With `COc1cc(C(=O)Nc2ccc3c(c2)COC2(CCNCC2)O3)cc(OC)c1OC` [CBK091531T], for the setting “bulk resorufin, single well”, the viability at 28.5 h, 10 µM worked out at 92.3%. With `Cn1nnnc1SCC(=O)Nc1ccc(Cl)c(Cl)c1` [CBK058218], the viability at 28.5 h, 10 µM worked out at 108%.

As for `Cc1cccc(Oc2nc3c(C)cccn3c(=O)c2/C=C(\C#N)c2nc3ccccc3[nH]2)c1` [CBK266528], the viability at 28.5 h, 10 µM amounted to 104%. On the same count and under the same terms, the figure for `CN(C)c1cccc2c(S(=O)(=O)n3c(=O)n(Cc4ccc(S(C)(=O)=O)cc4)c4ccccc43)cccc12` [CBK106535] is 103%.

As for `CN(C)CC(C)(C)CNC(=O)c1cnc2cc(C(F)(F)F)ccc2c1O` [CBK107427], the viability at 28.5 h, 10 µM is 97.9%. On to `CO[C@H]1CC[C@H](C(=O)NC(Cc2ccsc2)c2cccnc2)CC1` (some centres unmarked) [CBK285114], for which the viability at 28.5 h, 10 µM was 107%. Still for that read-out and setting: the result for `Cc1nnc(Sc2cc(C(F)(F)F)ccn2)s1` [CBK115215] reads 87.6%; that for `Cc1cc(NS(=O)(=O)c2ccc(NC(=O)c3cc(-c4ccc(C)o4)nc4ccccc34)cc2)nc(C)n1` [CBK262628], 93.9%. On the same count and under the same terms, the result for `COc1cc(CN2CCCC3(CCN(C(=O)Cc4c[nH]c5ccccc45)C3)C2)cc(OC)c1OC` (centres unmarked) [CBK132027] reads 99.5%. The same measure, in the same setting: the result for `CCOc1cc(OCC)cc(C(=O)N2CCC3(CC2)CC(=O)c2cc(OCC)ccc2O3)c1` [CBK168013] reads 87.2%; that for `CC(=O)Nc1nnc(SCCc2ccccc2)[nH]1` [CBK262514], 95.6%. `Cc1nc(C)c(C(=O)NC2Cc3ccccc3C2)s1` [CBK200357]: the viability at 28.5 h, 10 µM came to 91.2%. Same read-out and setting: the figure for `COC(=O)COc1nccnc1-c1ccc(SC)cc1` [CBK106806] is 107%; for `Cc1nc(N)nc(N[C@@H]2CCOC[C@H]2OCCN(C)C)c1Cl` [CBK307024] it is 88.7%. On the same count and under the same terms, the figure for `Cc1noc(C)c1CN1CCC(Cc2ccccc2)CC1` [CBK305752] is 96.8%; for `CCC(=O)N1CCCC1c1nc(C)c2c(n1)N(Cc1ccccc1OC)CCC2` (centres unmarked) [CBK285642] it is 91.9%. With `COC(=O)c1cccc(NC(=O)N2CCC3(CC2)OCCO3)c1` [CBK043713], under “bulk resorufin, single well”, the viability at 28.5 h, 10 µM stood at 91.1%. For the compound `COC(=O)c1c(NC(=O)CCCC(=O)O)sc2c1CCCCC2` [CBK265393], the viability at 28.5 h, 10 µM is 85.4%. On the same count and under the same terms, the figure for `Cc1ccc2nc(C)cc(C(=O)OCc3ccc(C(N)=O)cc3)c2c1` [CBK296676] is 97.8%; for `CC(C)C(=O)Nc1cc2cccnc2nc1-c1ccc(N(C)C)cc1` [CBK073650] it is 90.6%; for `COC(=O)[C@@H]1Cc2ncn(C(C)C)c2CN1S(=O)(=O)c1ccc([N+](=O)[O-])cc1` [CBK288985] it is 95.7%. Regarding `CN(C)CCN(Cc1nc2ccccc2[nH]1)Cc1cccs1` [CBK283020], the viability at 28.5 h, 10 µM is 85.1%.

In the case of `CN1C(=O)c2ccccc2C(=O)[C@@]2(C)CN(C(=O)C3CC3)C[C@@H]12` [CBK284569], the viability at 28.5 h, 10 µM was 87.3%. On the same count and under the same terms, the result for `COc1ccccc1CN(C(=O)Nc1ccccc1Cl)C1CC1` [CBK298332] reads 97.2%. Still for that read-out and setting: the result for `COc1ccc(C(=O)CCC(=O)Nc2cccnc2)c(OC)c1` [CBK266923] reads 105%; that for `CCn1cc(C(=O)O)c(=O)c2cnc(N3CCN(C(=S)Nc4cc5oc6ccccc6c5cc4OC)CC3)nc21` [CBK267929], 101%.

Regarding `CCNC(=O)NC[C@H]1C[C@@H]2CCN1C[C@@H]2c1cc(C2CCCC2)nn1C` [CBK288743], the viability at 28.5 h, 10 µM worked out at 93.6%.

With `Cc1nc(-c2ccsc2)sc1C(=O)NC1CCCN(c2ncccn2)C1` (centres unmarked) [CBK305632], the viability at 28.5 h, 10 µM was determined as 87.6%. `C=C(C)Cn1c(SCC(C)C)nnc1-c1cnccc1C` [CBK200075T]: the viability at 28.5 h, 10 µM amounted to 96%. The same measure, in the same setting: the figure for `O=c1c(N2CCNCC2)nccn1CC1COc2ccccc2O1` (centres unmarked) [CBK024845T] is 87%; for `O=C(O)CSc1nnc(-c2ccncc2)n1-c1ccc(Cl)cc1` [CBK266686] it is 92.1%. The same measure, in the same setting: the result for `CCC(CO)NC(=O)c1cnc(-c2cccc(C)c2)c(-c2ccc(OC)cc2)c1` (centres unmarked) [CBK037460] reads 101%; that for `Nc1nc(SCCCN2C(=O)c3cccc4cccc(c34)C2=O)nc2sc3c(c12)CCCC3` [CBK264433], 99.1%; that for `Nc1ncc(-c2ccc(C(=O)N3CCOCC3)cc2)cc1C(=O)NCCc1ccc(O)cc1` [CBK158577], 92.5%.

With `O=C(CN1CCC(O)(c2ccccc2F)CC1)N1CCCCC1` [CBK281938], the viability at 28.5 h, 10 µM came out at 103%. Same read-out and setting: the figure for `O=C(Nc1nccc(N2CCNCC2)n1)c1cccs1` [CBK004305T] is 77.7%; for `c1cn2cc(-c3ccoc3)nc(NC3CC3)c2n1` [CBK066720] it is 102%. With `Cc1cc(C(=O)CSc2nc3cc(Cl)cnc3[nH]2)c(C)n1C1CC1` [CBK305867], the viability at 28.5 h, 10 µM is 79.5%.

With `COc1ccc(CN2CCC(N3CCCCCC3)CC2)cc1OC` [CBK264721G], the viability at 28.5 h, 10 µM was 90.8%. Still for that read-out and setting: the result for `CC1CCCN(CC(C)(C)NC(=O)c2cc(C3CC3)on2)C1` (centres unmarked) [CBK281677] reads 94.6%; that for `CN1CCCC1CNCc1cn(-c2ccccc2)nc1-c1cccnc1` (centres unmarked) [CBK304490], 118%; that for `CN(Cc1ccc2ncccc2c1)C(=O)CC1CCN(CCc2ccccc2)CC1` [CBK286261], 108%. Same read-out and setting: the figure for `O=c1c(-c2nnc(SCc3cccc(C(F)(F)F)c3)o2)cccn1Cc1ccccc1` [CBK067712] is 108%. For `COCCNc1cc(-c2ccc(Cl)cc2)ncn1` [CBK090797], the viability at 28.5 h, 10 µM is 96.3%. On the same count and under the same terms, the figure for `CCCn1cc(C(CC(=O)O)C(=O)O)c2ccccc21` (centres unmarked) [CBK267345] is 92.4%; for `O=C(CCCn1ccnc1)NCC1(c2cccc(F)c2)CCCC1` [CBK281500] it is 88.5%. Same read-out and setting: the figure for `CC1(C)CN(c2ccc(S(N)(=O)=O)cc2)C1=O` [CBK020416] is 90.6%. Same read-out and setting: the figure for `CCOc1cc(/C=C2\SC(=S)N(NC(=O)c3cccnc3)C2=O)ccc1O` [CBK262759] is 105%. Consider `Cc1nc2c(C(=O)NCCOCCO)cnn2c(C)c1Cc1cccc(OC(F)(F)F)c1` [CBK167454], for which the viability at 28.5 h, 10 µM came to 114%. Same read-out and setting: the figure for `Cc1ccc(CNC(=O)CSc2nc(N)n[nH]2)cc1` [CBK267914] is 103%.

For `Cc1ccc(CC(C#N)Sc2nc(CN3CCOCC3)nc3ccccc23)cc1` (centres unmarked) [CBK298321], the viability at 28.5 h, 10 µM was 82%. Regarding `CC1(C)CC(N(Cc2ccc(F)cc2)Cc2c[nH]cn2)CC(C)(C)N1` [CBK282540], the viability at 28.5 h, 10 µM is 102%.

On to `O=C(O)CN1C(=O)C(=Cc2ccc(-c3ccc(Br)cc3)o2)SC1=S` [CBK296075], for which the viability at 28.5 h, 10 µM amounted to 92.2%. Regarding `CC[C@H](N)Cn1nc(-c2cccs2)oc1=O` [CBK282393], the viability at 28.5 h, 10 µM (bulk resorufin, single well) turned out to be 82.6%. As for `Fc1ccc(-c2noc(C3CCN(CCc4ccccc4)CC3)n2)cc1` [CBK051457], the viability at 28.5 h, 10 µM was determined as 91.3%. Still for that read-out and setting: the result for `CCCc1[nH]nc(O)c1CCc1ccccc1F` [CBK075080] reads 88.5%; that for `O=C(COc1ccc2ccccc2c1)OCC(=O)c1ccc([N+](=O)[O-])cc1` [CBK261586], 88.2%. In the case of `O=c1c2cc(F)ccc2nc2n1CCN(Cc1ccccc1)CC2` [CBK285300], the viability at 28.5 h, 10 µM came to 94.5%.

Take `OCc1ccc(-n2ncc(-c3ccc(Br)cc3F)n2)cc1` [CBK112920]: the viability at 28.5 h, 10 µM turned out to be 96.6%.

As for `Clc1ccc(CN2CCC(NCCCn3cccn3)CC2)cc1` [CBK304004], the viability at 28.5 h, 10 µM came to 84.2%. Same read-out and setting: the figure for `O=C(c1ccco1)N1CCC2(CC1)Nc1cccnc1-n1cccc12` [CBK284506] is 85.3%; for `O=C(COc1cccnc1)N1CCN(C(=O)c2ccco2)CC1` [CBK144482] it is 96.7%. Still for that read-out and setting: the result for `Cc1ccc2cc(S(=O)(=O)Nc3cccc(C(=O)O)c3)ccc2c1` [CBK299812] reads 101%; that for `CN(Cc1nc(-c2ccccc2)no1)C(=O)C1CC2(CCNCC2)CN1` (centres unmarked) [CBK306585], 88.7%. On the same count and under the same terms, the figure for `Fc1cnc(N2CCCC3(CCOC3)C2)nc1N1CCOCC1` (centres unmarked) [CBK307131] is 84.5%; for `CCOC(=O)C1CCCN(CCC(=O)Nc2ccccc2)C1` (centres unmarked) [CBK264192C] it is 91.7%.
